From PubChem BioAssay AID306 (DTP/NCI, 2004)
Where “and” joins values, the source holds several entries; their conditions need not be identical. Identical values can stand only once. Inconclusive results and toxic doses are left out.

System: BDF1 mice, L1210 Methyl-GAG-resistant leukemia, survival T/C
Assay: NCI In Vivo Anticancer Drug Screen. Data for tumor model L1210 Leukemia resistant to Methyl-GAG; NSC 32946 (subcutaneous) in B6D2F1 (BDF1) mice
Details: endpoint: mean survival time, schedule: Q01DX Z (ip), higher = longer survival
Procedure: The antitumor activity of compounds was measured in mice bearing transplantable tumors. Survival or tumor size were measured and the results are expressed as the measurement made in the treated group (T) divided by the measurement made in the vehicle treated control group (C). The tumor model used in this assay is L1210 Leukemia resistant to Methyl-GAG; NSC 32946 (subcutaneous) in B6D2F1 (BDF1) mice

[1] = dose: 1.6 mg/kg/injection, vehicle: carboxymethylcellulose (CMC)
[2] = dose: 3.1 mg/kg/injection, vehicle: carboxymethylcellulose (CMC)
[3] = dose: 6.25 mg/kg/injection, vehicle: carboxymethylcellulose (CMC)
[4] = dose: 12.5 mg/kg/injection, vehicle: carboxymethylcellulose (CMC)
[5] = dose: 25.0 mg/kg/injection, vehicle: carboxymethylcellulose (CMC)
[6] = dose: 50.0 mg/kg/injection, vehicle: carboxymethylcellulose (CMC)
[7] = dose: 100.0 mg/kg/injection, vehicle: saline

Nc1ncnc2[nH]ncc12 was tested, and the T/C (dose: 0.8 mg/kg/injection, vehicle: carboxymethylcellulose (CMC)) was 102 % of control, the T/C [1] was 100 % of control and the T/C [2] was 104 % of control. For the same molecule, the T/C [3] was 106 % of control, the T/C [4] was 102 % of control and the T/C [5] was 90 % of control. For the same molecule, the T/C [6] was 93 % of control and 96 % of control.

For CN(N=O)C(=O)NC(C=O)C(O)C(O)C(O)CO (stereo not given), the T/C (dose: 12.5 mg/kg/injection, vehicle: saline) was 101 % of control, the T/C (dose: 25.0 mg/kg/injection, vehicle: saline) was 106 % of control and 113 % of control and the T/C (dose: 50.0 mg/kg/injection, vehicle: saline) was 105 % of control and 110 % of control. The T/C [7] was 160 % of control and the T/C (dose: 200.0 mg/kg/injection, vehicle: saline) was 90 % of control.

For CCCSc1ncnc2nc[nH]c12, the T/C (dose: 6.3 mg/kg/injection, vehicle: carboxymethylcellulose (CMC)) was 107 % of control, the T/C [4] was 110 % of control and the T/C [5] was 110 % of control and 118 % of control. For the same molecule, the T/C [6] was 117 % of control and 123 % of control and the T/C (dose: 100.0 mg/kg/injection, vehicle: carboxymethylcellulose (CMC)) was 110 % of control.

In the case of c1ccc(CNc2ncnc3[nH]ncc23)cc1, the T/C (dose: 0.97 mg/kg/injection, vehicle: carboxymethylcellulose (CMC)) is reported as 107 % of control, the T/C (dose: 1.95 mg/kg/injection, vehicle: carboxymethylcellulose (CMC)) is reported as 102 % of control and the T/C (dose: 3.9 mg/kg/injection, vehicle: carboxymethylcellulose (CMC)) is reported as 108 % of control and 121 % of control. The T/C (dose: 7.8 mg/kg/injection, vehicle: carboxymethylcellulose (CMC)) was 100 % of control and 103 % of control, the T/C (dose: 15.5 mg/kg/injection, vehicle: carboxymethylcellulose (CMC)) was 107 % of control and the T/C (dose: 31.0 mg/kg/injection, vehicle: carboxymethylcellulose (CMC)) was 110 % of control.

For O=C1CCC(N2C(=O)c3ccccc3C2=O)C(=O)N1 (stereo not given), the T/C (dose: 18.75 mg/kg/injection, vehicle: carboxymethylcellulose (CMC)) was 96 % of control, the T/C (dose: 37.5 mg/kg/injection, vehicle: carboxymethylcellulose (CMC)) was 102 % of control and the T/C (dose: 75.0 mg/kg/injection, vehicle: carboxymethylcellulose (CMC)) was 102 % of control. The T/C (dose: 150.0 mg/kg/injection, vehicle: carboxymethylcellulose (CMC)) was 94 % of control.

S=P(N1CCOCC1)(N1CC1)N1CC1 was tested, and the T/C [4] was 104 % of control and the T/C [5] was 102 % of control.

In the case of CN(C)c1ccc(Nc2c3ccccc3nc3ccccc23)cc1, the T/C [1] is reported as 105 % of control, the T/C [2] is reported as 99 % of control and the T/C [3] is reported as 100 % of control. The T/C [4] was 103 % of control, the T/C [5] was 115 % of control and the T/C (dose: 200.0 mg/kg/injection, vehicle: carboxymethylcellulose (CMC)) was 91 % of control.

With O=c1[nH]cc(F)c(=O)[nH]1 the T/C (dose: 6.25 mg/kg/injection, vehicle: saline) was 102 % of control and the T/C [7] was 110 % of control.

In the case of Nc1nc2n[nH]nc2c(=O)[nH]1, the T/C (dose: 25.0 mg/kg/injection, vehicle: other) is reported as 159 % of control, the T/C (dose: 100.0 mg/kg/injection, vehicle: other) is reported as 162 % of control and 168 % of control and the T/C (dose: 400.0 mg/kg/injection, vehicle: other) is reported as 177 % of control.
